Columns and labels:
Format in all cases: cell-based
[1] = test system: human lung cancer (A549) cells; experiment: MTT tumor cell growth inhibition, human lung cancer (A549); details: Homo sapiens; A549, 48 h culture, MTT method; read-out: IC50 value of target compound against cancer cell proliferation, A549
Procedure: (§1) Dissolve CHJ compound series with dimethyl sultbxide (DMSO, final concentration 0.4%), and use RPMI-1640 culture medium containing 15% fetal calf serum to prepare 1 mg/mL solution for future use. During drug administration in groups, use the culture medium to dilute it to the concentration needed.
(§2) Cell lines: human lung cancer (A549), Inman ovarian cancer (SKOV3), human melanoma (A375) and human colon cancer (LOVO) cell lines, all purchased from the Cell Bank of the Chinese Academy of Sciences, DMEM containing 15% fetal bovine serum (High Glucose) culture medium, placed in a 37° C., 5% CO2 incubator.
(§3) MTT is an oxidizing yellow dye with the chemical name of 3-(4,5-dimethyl-2-thiazolyl)-2,5-diphenyl-2-H-tetrazoliumbromide tetrazole bromide. The MMT method, also known as the MTT colorimetric method, can test the survival and growth of cells. The method is simple and easily accessible and often used to screet the substance with cytotoxic activity. The basic principle of testing, is that succinodehydrogenase can reduce exogenous MIT so that MTT is reduced to blueviolet crystal Formazan insoluble to water. The crystal deposits in cells. The succinodehydrogenase exists in the mitochondria of living cells, not in the dead cells. Therefore, the chromogenic reaction can only take place in living cells. Then, dissolve the blueviolet crystal Formazan contained in cells with dimethyl sulfoxide (DMSO), and measure its absorbancy with microplate reader so that the count of living cells is reflected indirectly. Within the scope of certain cell count, the amount of blueviolet crystal Formazan formed is positively correlated to the count of living cells.
(§4) Human lung cancer (A549), human ovarian cancer (SKOV3), human melanoma (A375) and human colon cancer (LOVO) ceilsare all adherent. Based on the growth rate of tumor cells, wash the adherent tumor cells in the logarithmic phase and digest them in 0.25% EDTA pancreatic enzyme. Adjust the cell count to 1×10^5/mL and inoculate the cells in 96-pore plate, each pore containing 100 μL. Culture the cells in the 37° C. CO2 incubator, and administer the drug 24 h later. Add pharmaceutical (CJH compound series) of different concentrations to the administration group. Set up 5 dosage groups for each pharmaceutical, respectively 100, 10, 1, 0.1, 0.01 μmol/L. Set up three complex pores for each concentration. Set up blank control, DMSO (0.8%) solvent control and cis-platinum positive control. After 48 h of culture in the 37 ° C. incubator containing 5% CO2, measure the OD value through MTT method and calculate the cell inhibition ratio.
(§5) After 48 h of culture of human lung cancer (A549), human ovarian cancer (SKOV3). human melanoma (A375) and human colon cancer (LOVO) cells, stop it and add 10 μL 0.5% MTT solution to each pore. Place it in the CO2 incubator for 4 h. Remove the liquid from each pore, respectively add 0.2 mL DMSO solution, and oscillate it adequately on the table concentrator under low frequency so that the blueviolet crystal Formazan is dissolved adequately. Place it in the microplate reader and record the OD value at the wavelength of […]. Calculate the average OD value of three parallel pores of different concentrations, and calculate the cell inhibition ratio and IC50 of each tested pharmaceutical under different concentrations based on the average.
(§6) Inhibition ratio (%)=[1-tested sample OD/negative control group OD]×100%.

[2] = test system: human ovarian cancer (SKOV3) cells; experiment: MTT tumor cell growth inhibition, human ovarian cancer (SKOV3); details: Homo sapiens, SK-OV-3; SKOV3, 48 h culture, MTT method; read-out: IC50 value of target compound against cancer cell proliferation, SKOV3
Procedure: as §1, §2, §3, §4, §5, §6

[3] = test system: human melanoma (A375) cells; experiment: MTT tumor cell growth inhibition, human melanoma (A375); details: Homo sapiens, A-375; A375, 48 h culture, MTT method; read-out: IC50 value of target compound against cancer cell proliferation, A375
Procedure: as §1, §2, §3, §4, §5, §6

[4] = test system: human colon cancer (LOVO) cells; experiment: MTT tumor cell growth inhibition, human colon cancer (LOVO); details: Homo sapiens, 48 h culture, MTT method, read-out: IC50 value of target compound against cancer cell proliferation, LOVO
Procedure: as §1, §2, §3, §4, §5, §6

SMILES	IC50 [1] [µM]	IC50 [2] [µM]	IC50 [3] [nM]	IC50 [4] [nM]
COc1cc(CN(C)CC(O)COc2c(Cl)cccc2Cl)ccc1OCCN1CCC(C)CC1 (centres unmarked) [CHJ02029, 1-(2,6-dichlorophenoxy)-3-((3-methoxy-4-(2-(4-methylpiperidin-1-yl)ethoxy)benzyl) (methyl)amino)propan-2-ol]	3.55 ± 0.06	6.3 ± 0.16	2430 ± 120	1870 ± 20
COc1cc(CN(C)CC(O)COc2ccc(Br)c(C(F)(F)F)c2)ccc1OCCN1CCC(C)CC1 (centres unmarked) [CHJ02049, 1-(4-bromo-3-(trifluoromethyl)phenoxy)-3-((3-methoxy-4-(2-(4-methylpiperidin-1-yl)ethoxy)benzyl)(methyl)amino)propan-2-ol]	0.52 ± 0.23	0.62 ± 0.08	620 ± 40	1250 ± 30
COc1cc(CN(C)CC(O)COc2cc(C(F)(F)F)ccc2C(F)(F)F)ccc1OCCN1CCC(C)CC1 (centres unmarked) [CHJ02050, 1-(2,5-bis(trifluoromethyl)phenoxy)-3-((3-methoxy-4-(2-(4-methylpiperidin-1-yl)ethoxy)benzyl)(methyl)amino)propan-2-ol]	1.09 ± 1.55	4.04 ± 0.06	1870 ± 70	3880 ± 1800
COc1cc(CN(C)CC(O)COc2cccc(Br)c2)ccc1OCCN1CCC(C)CC1 (centres unmarked) [CHJ03001, 1-(3-bromophenoxy)-3-((3-methoxy-4-(2-(4-methylpiperidin-1-yl)ethoxy)benzyl) (methyl)amino)propan-2-ol]	1.3 ± 1.03	2.48	1950 ± 330	1260 ± 530
COc1cc(CN(C)CC(O)COc2ccccc2Br)ccc1OCCN1CCC(C)CC1 (centres unmarked) [CHJ03003, 1-(2-bromophenoxy)-3-((3-methoxy-4-(2-(4-methylpiperidin-1-yl)ethoxy)benzyl) (methyl)amino)propan-2-ol]	6.08 ± 0.9	3 ± 0.99	5950 ± 420	700 ± 260
COc1cc(CN(C)CC(O)COc2ccccc2C(C)C)ccc1OCCN1CCC(C)CC1 (centres unmarked) [CHJ03004, 1(2-isopropylphenoxy)-3-((3-methoxy-4-(2-(4-methylpiperidin-1yl)ethoxy)benzyl) (methyl)amino)propan-2-ol]	2.1 ± 1.25	6.19 ± 0.25	720 ± 800	2540 ± 100
COc1cc(CN(C)CC(O)COc2ccc(Br)cc2OC)ccc1OCCN1CCC(C)CC1 (centres unmarked) [CHJ03005, 1-(4-bromo-2-methoxypbenoxy)-3-((3-methoxy-4-(2-(4-methylpiperidin-1-yl)ethoxy)benzyl)(methyl)amino)propan-2-ol]	15.6 ± 0.16	3.99 ± 0.21	5600 ± 810	6660 ± 110
COc1cc(CN(C)CC(O)COc2ccc(Br)cc2)ccc1OCCN1CCC(C)CC1 (centres unmarked) [CHJ03014]	1.09 ± 0.06	6.19 ± 0.62		530 ± 150
COc1cc(CN(C)CC(O)COc2cccc(C(C)C)c2)ccc1OCCN1CCC(C)CC1 (centres unmarked) [CHJ03015, 1-(3-isopropylphenoxy)-3-((3-methoxy-4-(2-(4-methylpiperidin-1-yl)ethoxy)benzyl) (methyl)amino)propan-2-ol]	1.03 ± 0.13	4.47 ± 1.62		550 ± 210
COc1cccc(OCC(O)CN(C)Cc2ccc(OCCN3CCC(C)CC3)c(OC)c2)c1 (centres unmarked) [CHJ03017, 1-((3-methoxy-4-(2-(4-methylpiperidin-1-yl)ethoxy)benzyl)(methyl)amino)-3-(3-methoxyphenoxy)propan2-ol]	17.2 ± 0.79	6.21 ± 1.04	8680 ± 110	2440 ± 30
COc1cc(CN(C)CC(O)COc2cc(Br)ccc2F)ccc1OCCN1CCC(C)CC1 (centres unmarked) [CHJ03018]	18.8 ± 1.06	1.79 ± 0.23	3130 ± 60	1720 ± 1580
COc1cc(CN(C)CC(O)COc2ccc(Cl)c(Br)c2)ccc1OCCN1CCC(C)CC1 (centres unmarked) [CHJ03043, 1-(3-bromo-4-chlorophenoxy)-3-((3-methoxy-4-(2-(4-methylpiperidia-1-yl)ethoxy)benzyl)(methyl)amino)propan-2-ol]	2.5 ± 1.32	2.9 ± 0.19	540 ± 260	950 ± 410
COc1cc(CN(C)CC(O)COc2ccc(C)c(Br)c2)ccc1OCCN1CCC(C)CC1 (centres unmarked) [CHJ04010, 1-(3-bromo-4-methylphenoxy)-3-((3-methoxy-4-(2-(4-methylpiperidin-1-yl)ethoxy)benzyl)(methyl)amino)propan-2-ol]		4.96 ± 1.26	450 ± 460	2780 ± 230
COc1cc(CN(C)CC(O)COc2cc(C(F)(F)F)ccc2Br)ccc1OCCN1CCC(C)CC1 (centres unmarked) [CHJ04011]	4.05 ± 1.12	2.41 ± 1.03	480 ± 280	1010 ± 80
COc1cc(CN(C)CC(O)COc2cc(Cl)cc(Cl)c2)ccc1OCCN1CCC(C)CC1 (centres unmarked) [CHJ04012, 1-(3,5-dichlorophenoxy)-3-((3-methoxy-4-(2-(4-methylpiperidin-1-yl)ethoxy)benzyl) (methyl)amino)propan-2-ol]	6.38 ± 0.07	4.34 ± 0.32	1240 ± 1010	2120 ± 40
COc1cc(CN(C)CC(O)COc2ccc(F)c(Br)c2)ccc1OCCN1CCC(C)CC1 (centres unmarked) [CHJ04020, 1-(3-bromo-4-fluorophenoxy)-3-((3-methoxy-4-(2-(4-methylpiperidin-1-yl)ethoxy)benzyl)(methyl)amino)propan-2-ol]	1.38 ± 1.14	3.4 ± 1.17	1600 ± 920	3830 ± 1800
COc1cc(CN(C)CC(O)COc2cc(F)cc(Br)c2)ccc1OCCN1CCC(C)CC1 (centres unmarked) [CHJ04023]	5.44 ± 2.54	8.03 ± 2.77	810 ± 330	3070 ± 1620
COc1cc(CN(C)CC(O)COc2cccc(Cl)c2)ccc1OCCN1CCC(C)CC1 (centres unmarked) [CHJ04024]	5.45 ± 1.03	1.37 ± 0.34	980 ± 760	18600 ± 3220
COc1cc(CN(C)CC(O)COc2cccc(C(F)(F)F)c2)ccc1OCCN1CCC(C)CC1 (centres unmarked) [CHJ04025, 1-((3-methoxy-4-(2-(4-methylpiperidin-1-yl)ethoxy)benzyl)(methyl)amino)-3-(3-(trifluoromethyl)phenoxy)propan-2-ol]	4.21 ± 2.24	3.32 ± 1.02	2340 ± 1630	2550 ± 1650
COc1cc(CN(C)CC(O)COc2ccc(Cl)c(Cl)c2)ccc1OCCN1CCC(C)CC1 (centres unmarked) [CHJ04026, 1-(3,4-dichlophenoxy)-3-((3-methoxy-4-(2-(4-methylpiperidin-1-yl)ethoxy)benzyl) (methyl)amino)propan-2-ol]	0.97 ± 0.21	7.45 ± 2.26	1500 ± 60	820 ± 420
COc1cc(CN(C)CC(O)COc2ccccc2I)ccc1OCCN1CCC(C)CC1 (centres unmarked) [CHJ04027]	6.22 ± 1.34	3.02 ± 1.76	730 ± 130	2350 ± 1040
COc1cc(CN(C)CC(O)COc2c(Cl)cc(Br)cc2Cl)ccc1OCCN1CCC(C)CC1 (centres unmarked) [CHJ04033, 1-(4-bromo-2,6-dichlorophenoxy)-3-((3-methoxy-4-(2-(4-methylpiperidin-1-yl)ethoxy)benzyl)(methyl)amino)propan-2-ol]	0.95 ± 0.37	6.22 ± 3.05	920 ± 70	2230 ± 1260
COc1cc(CN(C)CC(O)COc2cc(C(F)(F)F)ccc2Br)ccc1OCCN1CCCC1 (centres unmarked) [CHJ04065, 1-(-bromo-5-(trifluoromethyl)phenoxy)-3-((3-methoxy-4-(2-(pyrrolidin-1-yl)ethoxy)benzyl)(methyl)amino)propan-2-ol]	25.5 ± 2.11	27.1 ± 1.62		3140 ± 1060
COc1cc(CN(C)CC(O)COc2ccccc2OC)ccc1OCCN1CCC(C)CC1 (centres unmarked) [CHJ04086]			34700 ± 3420	
